Data as given in the NIST ThermoML archive (doi:10.1016/j.tca.2015.02.014).
± gives the expanded uncertainty stated by the source.

Assay: mn = molality of the nth substance listed, in mol/kg
Settings: 100 kPa, Liquid; for viscosity: Capillary tube (Ostwald / Ubbelohde) method; for speed of sound: Frequency=3 MHz, Sing-around technique in a fixed-path interferometer; for mass density: Vibrating tube method

C[C@H](CCC(=O)[O-])[C@H]1CC[C@H]2[C@@H]3[C@H](O)C[C@@H]4C[C@H](O)CC[C@]4(C)[C@H]3C[C@H](O)[C@]12C.[Na+] [sodium cholate] + O
Settings | mass density, 293.15 K [kg/m3] | mass density, 298.15 K [kg/m3] | mass density, 303.15 K [kg/m3] | speed of sound, 293.15 K [m/s] | speed of sound, 298.15 K [m/s] | speed of sound, 303.15 K [m/s] | viscosity, 293.15 K [mPa·s] | viscosity, 298.15 K [mPa·s] | viscosity, 303.15 K [mPa·s]
m1 = 0.001 | 998.33 ± 0.12 | 997.158 ± 0.12 | 995.785 ± 0.13 | 1483 ± 1.3 | 1497 ± 1.3 | 1509.5 ± 1.3 | 1.003 ± 0.021 | 0.8906 ± 0.021 | 0.798 ± 0.021
m1 = 0.002 | 998.422 ± 0.12 | 997.267 ± 0.12 | 995.901 ± 0.13 | 1483.3 ± 1.4 | 1497.3 ± 1.3 | 1509.8 ± 1.3 | 1.004 ± 0.021 | 0.8925 ± 0.021 | 0.7991 ± 0.021
m1 = 0.003 | 998.533 ± 0.12 | 997.369 ± 0.12 | 996.001 ± 0.13 | 1483.6 ± 1.4 | 1497.6 ± 1.3 | 1510 ± 1.3 | 1.005 ± 0.021 | 0.8939 ± 0.021 | 0.7999 ± 0.021
m1 = 0.004 | 998.618 ± 0.12 | 997.455 ± 0.12 | 996.102 ± 0.13 | 1483.8 ± 1.4 | 1497.9 ± 1.3 | 1510.2 ± 1.3 | 1.007 ± 0.021 | 0.8955 ± 0.021 | 0.8022 ± 0.021
m1 = 0.006 | 998.805 ± 0.12 | 997.635 ± 0.12 | 996.301 ± 0.13 | 1484.4 ± 1.4 | 1498.4 ± 1.3 | 1510.7 ± 1.3 | 1.011 ± 0.021 | 0.8987 ± 0.021 | 0.8047 ± 0.021
m1 = 0.008 | 999.003 ± 0.12 | 997.835 ± 0.12 | 996.513 ± 0.13 | 1485 ± 1.4 | 1499.1 ± 1.3 | 1511.3 ± 1.3 | 1.016 ± 0.021 | 0.902 ± 0.021 | 0.8075 ± 0.021
m1 = 0.01 | 999.241 ± 0.12 | 998.035 ± 0.12 | 996.724 ± 0.13 | 1485.8 ± 1.4 | 1499.7 ± 1.3 | 1511.8 ± 1.3 | 1.021 ± 0.021 | 0.9055 ± 0.021 | 0.8105 ± 0.021
m1 = 0.014 | 999.685 ± 0.12 | 998.454 ± 0.13 | 997.167 ± 0.13 | 1486.9 ± 1.3 | 1500.8 ± 1.3 | 1512.8 ± 1.3 | 1.033 ± 0.022 | 0.9168 ± 0.021 | 0.8215 ± 0.021
m1 = 0.018 | 1000.14 ± 0.14 | 998.905 ± 0.13 | 997.524 ± 0.13 | 1487.9 ± 1.7 | 1501.7 ± 1.3 | 1513.8 ± 1.3 | 1.041 ± 0.024 | 0.9239 ± 0.021 | 0.8281 ± 0.021
m1 = 0.022 | 1000.59 ± 0.12 | 999.354 ± 0.13 | 997.945 ± 0.13 | 1488.8 ± 1.3 | 1502.6 ± 1.3 | 1514.6 ± 1.3 | 1.048 ± 0.021 | 0.9315 ± 0.021 | 0.8321 ± 0.021
m1 = 0.026 | 1001 ± 0.13 | 999.746 ± 0.13 | 998.31 ± 0.13 | 1489.7 ± 1.3 | 1503.4 ± 1.3 | 1515.4 ± 1.3 | 1.056 ± 0.021 | 0.9373 ± 0.021 | 0.838 ± 0.021
m1 = 0.03 | 1001.44 ± 0.13 | 1000.14 ± 0.12 | 998.815 ± 0.13 | 1490.2 ± 1.3 | 1504 ± 1.3 | 1516.1 ± 1.3 | 1.063 ± 0.022 | 0.9429 ± 0.021 | 0.8429 ± 0.021
